Source: patent publication US11884649B2, “IRE1α inhibitors and uses thereof” (The Regents of the University of California, priority 2020, dated 2024)
“Also recorded” adds a separate entry of the source.

Key:
IRE1α* = target: T1, IRE1α* (Homo sapiens, UniProt O75460); test: In vitro Kdimer assay (dimerization affinity from RNase activity); assay type: biochemical; settings: 50 μM inhibitor
T1 construct: human IRE1α (residues 547-977, IRE1α*) was expressed in SF9 insect cells; His6 (N); made in house; host or cells: Sf9 insect cells (Bac-to-Bac baculovirus)
T1 sequence (O75460 547-977): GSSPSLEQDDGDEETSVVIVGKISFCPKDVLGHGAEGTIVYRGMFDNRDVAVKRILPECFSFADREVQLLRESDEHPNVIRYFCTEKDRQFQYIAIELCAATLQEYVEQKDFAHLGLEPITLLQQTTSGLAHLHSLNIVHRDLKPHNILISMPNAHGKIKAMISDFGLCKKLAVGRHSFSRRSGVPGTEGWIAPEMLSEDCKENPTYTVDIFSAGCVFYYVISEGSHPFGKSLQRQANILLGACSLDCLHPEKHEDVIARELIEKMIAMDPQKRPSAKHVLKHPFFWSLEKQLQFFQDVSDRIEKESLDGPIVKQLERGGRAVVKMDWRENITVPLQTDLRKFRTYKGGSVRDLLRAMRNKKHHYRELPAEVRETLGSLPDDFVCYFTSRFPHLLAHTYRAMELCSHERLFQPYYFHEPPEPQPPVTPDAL
Text: In order to better understand how to achieve an optimal intermediate RNase activation state through engagement of IRE1α's kinase domain, we first established a quantitative in vitro framework for characterizing how ATP-binding site occupancy influences RNase activity. […] This dimeric state-commonly referred to as the “back-to-back” dimer—is characterized by an extensive interface between the kinase and RNase domains of each IRE1α protomer; this dimeric state can be promoted through mass action as IRE1α concentration is raised. […] Furthermore, ligands that occupy the ATP-binding site of the kinase domain can also stimulate IRE1α's RNase activity by promoting dimer formation. We measured the ability of a purified, recombinant kinase/RNase domain construct of IRE1α—called IRE1α*—to cleave a FRET-quenched XBP1 RNA mini-substrate as a function of IRE1α* concentration, in order to provide a quantitative metric of IRE1α's dimer affinity (Kdimer) (FIG. 1B).
IRE1α* or dPIRE1α* was titrated from either 2 μM or 4 μM in two-fold serial dilutions in assay buffer (20 mM Tris, 50 mM sodium chloride, 1 mM MgCl2, 2 mM DTT, 0.05% Triton X-100 (v/v), pH 7.5) and incubated with 50 μM inhibitor for 30 minutes at room temperature. Assays were initiated by adding 10 μL of XBP1-mini substrate (5′-Alex647-CAUGUCCGCAGCGCAUG-IowaBlack-FQ-3′ (SEQ ID NO:1); IDT) to the wells at a final concentration of 6 μM and a final well volume of 30 μL. Fluorescence was detected on a Perkin Elmer Envision Microplate Reader at excitation and emission wavelengths of 650 nm and 665 nm. Reaction process was monitored real time in 10-second intervals for at least 30 minutes. Initial rates of XBP1-cleavage were determined for each respective IRE1α* of dpIRE1α* concentration. Specific activity was then determined by dividing rate (RFU/s) by the respective IRE1α* of dpIRE1α* used (RFU/s*[IRE1α]). Kdimer values were determined by fitting these values using the non-linear regression ‘one-site total’ binding parameter in GraphPad Prism analysis software.

mouse splenocytes = test: LPS-induced differentiation of mouse splenocytes into plasma cells (flow cytometry, IgM ELISA); assay type: cell-based; settings: 1 μg/mL LPS, three days, 20 μM-1.25 μM
Method: Therefore, we sought to compare the sensitivity of this process to both KIRAs and PAIRs. To this end, we assessed how KIRA8, KIRA9, and PAIR1 affected the differentiation of lipopolysaccharide (LPS)-treated mouse splenocytes into antibody-secreting plasma cells. Total live number of CD19+ B-cells were assessed and plasma cells were quantified on the basis of B220 downregulation and CD138 expression by flow cytometry (FIGS. 6A-6C, FIG. 24). Concomitantly, secreted IgM was measured in the cell culture supernatants by ELISA (FIG. 6C).
Splenocyte Isolation and Differentiation
Red blood cells were lysed with ammonium chloride potassium buffer. Splenocytes were plated at 2.5×10^5 cells/well in a 96-well round bottom plate in complete media. The splenocytes were treated with or without 1 μg/ml LPS 026:b6 (Sigma). […] The splenocytes were incubated for three days in a 37° C., 5% CO2 humidified chamber before collection and staining for flow cytometry.
Cells from the plasma cell assay were collected in a 96-well plate and washed with PBS followed by staining with LIVE/DEAD Fixable Near-IR Dead Cell Stain kit (Invitrogen). Reagent was reconstituted as per manufacturer's instructions, diluted 1:1000 in PBS, and cells were stained in 100 μL on ice for 20 minutes. The cells were then washed with FACS buffer, PBS (Corning), 2 mM EDTA and 2% heat inactivated fetal bovine serum (Omega Scientific). The cells were then stained with 50 μL antibody cocktail consisting of anti-CD19 (BioLegend), anti-CD45R (BD Pharmingen), and anti-CD138 (BioLegend) in FACS buffer on ice for 15 minutes. Cells were resuspended in FACS buffer and combined with an equal volume of 4% paraformaldehyde with 5000 Countbright Absolute Counting Beads (Thermofisher). Stained cells were analyzed on a Fortessa (Becton Dickinson). Data analysis was performed using FlowJo (v10) software (Treestar Inc.).
Media supernatants from the in vitro plasma cell differentiation assay were measured for secreted IgM by ELISA. […] Wash buffer (PBS with 0.05% Tween-20 (v/v)) was used for all washing steps and blocked with PBS-BB (PBS without Ca^2+/Mg^2+, 1% BSA (w/v), 0.05% Tween-20 (v/v)). Supernatants from LPS stimulated samples were diluted (1:100) and media only samples were diluted (1:10) in PBS-BB. […] ELISA plates were developed with TMB (Sigma) and stopped with 1N sulfuric acid. Absorbance was measured at 450 nm using spectrophotometer (Spectramax M5, Molecular Devices). Sample IgM concentration values were calculated with SoftMaxPro software.

XBP1 mRNA splicing = test: XBP1 splicing in ER-stressed INS-1 cells; assay type: cell-based, rat; settings: brefeldin A (BFA) or thapsigargin (Tg)
Method: RNA Isolation, Quantitative Real-Time PCR, and Primers
INS-1 or isogenic IRE1α-overexpressing INS-1 cells were plated onto Poly-D-Lysine coated tissue culture plate and grown for 48 hrs. Inhibitors or DMSO were added to the media and incubated for 1 hour at 37° C. with 5% CO2 prior to addition of ER stress agents or Dox as indicated. RNA was isolated from whole cells using either QIAGEN RNeasy Mini kits or Trizol (Invitrogen) and reverse transcribed as above to obtain total cDNA. Then, XBP-1 primers were used to amplify an XBP-1 amplicon spanning the 26 nt intron from the cDNA samples in a regular 3-step PCR. Thermal cycles were: 5 min at 95° C., 30 cycles of 30 s at 95° C., 30 s at 60° C., and 1 min at 72° C., followed by 72° C. for 15 min, and hold at 4° C. Primers used for XBP-1 mRNA splicing were as follows: sense primer XBP1.3 S (5′ […]-3′ (SEQ ID NO:2)) and antisense primer XBP1.2AS (5′-[…]-3′ (SEQ ID NO:3)). PCR fragments were then digested by PstI, resolved on 3% agarose gels, stained with EtBr and quantified by densitometry using ImageJ (NIH). For standard mRNA detection, generally […] total RNA was reverse transcribed using the QuantiTect Reverse Transcription Kit (QIAGEN). For qPCR, we used SYBR green (QIAGEN) and StepOnePlus Real-Time PCR System (Applied Biosystems). Thermal cycles were: 5 min at 95° C., 40 cycles of 15 sec at 95° C., 30 sec at 60° C. […]

Cc1ccc2c(NS(=O)(=O)c3ccccc3Cl)cccc2c1Oc1ncccc1-c1ccnc(N[C@H]2CCCNC2)n1 [KIRA8, reference compound]
dimerization affinity of IRE1α* / formation of RNase active dimers (IRE1α*): unable to form RNase active dimers at any concentration tested
IgM secretion (mouse splenocytes): reductions in both plasma cell differentiation and IgM secretion in a dose-dependent manner
plasma cell (CD138+) differentiation (mouse splenocytes): dose-dependently inhibits B-cell differentiation into plasma cells; also recorded: reductions in both plasma cell differentiation and IgM secretion in a dose-dependent manner
spliced XBP1 (XBP1 mRNA splicing): completely suppresses XBP1 splicing; also recorded: almost completely suppressed
